# Values of other authors as cited in PubChem BioAssay AID1259409 (Chemical Carcinogenesis Research Information System (CCRIS), 2018).
# Test system: rodent chemically induced tumor inhibition, incidence and multiplicity
# Assay: CCRIS tumor inhibitor studies
# Conditions: Route [Inhibitor]: ORAL
compound,measurement,setting,value
Cc1c(C)c2c(c(C)c1O)CC[C@@](C)(CCC[C@H](C)CCC[C@H](C)CCCC(C)C)O2,"tumour outcome (control, treated, inhibition, significance)","Carcinogen: 3,2-DIMETHYL-4-AMINOBIPHENYL, 13394-86-0, Dose [Inhibitor]: 0, 1% IN BASAL DIET BEGINNING POST CARCINOGEN TREATMENT AND CONTINUING FOR 40 WK (STUDY DURATION: 60 WK), Species: RAT, Strain/Sex: F344/MALE, Target Tissue: Type of Lesion: PANCREAS: ACINAR CELL NODULE, Dose [Carcinogen]: 50 MG/KG 1/2 WK FOR 20 WK TO RATS MAINTAINED ON ETHINYL ESTRADIOL CONTAINING DIET (0.75 PPM) FOR 1 WK CYCLED WITH ETHINY, Promoter: ETHINYL ESTRADIOL, 57-63-6","4/10 (40%), 5/12 (42%), -5%, not significant"
same,"tumour outcome (control, treated, inhibition, significance)","Carcinogen: 3,2-DIMETHYL-4-AMINOBIPHENYL, 13394-86-0, Dose [Inhibitor]: 0, 1% IN BASAL DIET BEGINNING POST CARCINOGEN TREATMENT AND CONTINUING FOR 40 WK (STUDY DURATION: 60 WK), Species: RAT, Strain/Sex: F344/MALE, Target Tissue: Type of Lesion: PROSTATE: CARCINOMA, Dose [Carcinogen]: 50 MG/KG 1/2 WK FOR 20 WK TO RATS MAINTAINED ON ETHINYL ESTRADIOL CONTAINING DIET (0.75 PPM) FOR 1 WK CYCLED WITH ETHINY, Promoter: ETHINYL ESTRADIOL, 57-63-6","5/10 (50%), 6/12 (50%), 0%, not significant"
same,"tumour outcome (control, treated, inhibition, significance)","Carcinogen: 4-NITROQUINOLINE 1-OXIDE, 56-57-5, Dose [Inhibitor]: 25.5, 550.9 MG/KG IN DIET FOR DURATION OF STUDY (STUDY DURATION: 23 WK), Species: MOUSE, Strain/Sex: DDY/MALE, Target Tissue: Type of Lesion: LUNG: TUMOR, Dose [Carcinogen]: 10 MG/KG BW SUSPENDED IN OLIVE OIL AND CHOLESTEROL (20:1, W/W) ONCE, Promoter: NONE USED","6/11 (55%), 4/11 (36%), 36%, not significant"
same,"tumour outcome (control, treated, inhibition, significance)","Carcinogen: 4-NITROQUINOLINE 1-OXIDE, 56-57-5, Dose [Inhibitor]: EXCESSIVE VITAMIN E (DOSE NOT STATED) IN THE DIET FOR 4 WK POST CARCINOGEN DOSE (STUDY DURATION: 23 WK), Species: MOUSE, Strain/Sex: DDY/MALE, Target Tissue: Type of Lesion: LUNG: TUMOR, Dose [Carcinogen]: 10 MG/KG BW ONCE, Promoter: GLYCEROL, 56-81-5","9/11 (82%), 5/11 (45%), 45%, not calculated"
same,"tumour outcome (control, treated, inhibition, significance)","Carcinogen: 4-NITROQUINOLINE 1-OXIDE, 56-57-5, Dose [Inhibitor]: EXCESSIVE VITAMIN E (DOSE NOT STATED) IN THE DIET FOR 23 WK POST CARCINOGEN DOSE (STUDY DURATION: 23 WK), Species: MOUSE, Strain/Sex: DDY/MALE, Target Tissue: Type of Lesion: LUNG: TUMOR, Dose [Carcinogen]: 10 MG/KG BW ONCE, Promoter: GLYCEROL, 56-81-5","9/11 (82%), 2/9 (22%), 73%, not calculated"
same,"tumour outcome (control, treated, inhibition, significance)","Carcinogen: 7,12-DIMETHYLBENZ[A]ANTHRACENE, 57-97-6, Dose [Inhibitor]: 0, 3.349 UMOL/G IN DIET FOR DURATION OF STUDY (STUDY DURATION: 18 WK), Species: RAT, Strain/Sex: SPRAGUE-DAWLEY/FEMALE, Target Tissue: Type of Lesion: MAMMARY GLAND: TUMOR, Dose [Carcinogen]: 50 MG/KG IN SESAME OIL ONCE, Promoter: NONE USED","88%, 79%, 10%, not significant"
same,"tumour outcome (control, treated, inhibition, significance)","Carcinogen: 7,12-DIMETHYLBENZ[A]ANTHRACENE, 57-97-6, Dose [Inhibitor]: 0.2% IN DIET FROM WEANING ONWARD (STUDY DURATION: 6 MO AFTER CARCINOGEN ADMINISTRATION), Species: RAT, Strain/Sex: SPRAGUE-DAWLEY/FEMALE, Target Tissue: Type of Lesion: MAMMARY GLAND: TUMOR, Dose [Carcinogen]: 10 MG/RAT IN 1 ML STRIPPED CORN OIL SINGLE DOSE ON D 50 FOLLOWING 24 HR FASTING PERIOD, Promoter: NONE USED","70%, 70%, 0%, not calculated"
same,"tumour outcome (control, treated, inhibition, significance)","Carcinogen: 7,12-DIMETHYLBENZ[A]ANTHRACENE, 57-97-6, Dose [Inhibitor]: 0.2% IN DIET FROM WEANING ONWARD (STUDY DURATION: 6 MO AFTER CARCINOGEN ADMINISTRATION), Species: RAT, Strain/Sex: SPRAGUE-DAWLEY/FEMALE, Target Tissue: Type of Lesion: MAMMARY GLAND: TUMOR, Dose [Carcinogen]: 10 MG/RAT IN 1 ML STRIPPED CORN OIL, SINGLE DOSE ON D 5 FOLLOWING 24 HR FASTING PERIOD, Promoter: NONE USED","40%, 37%, 8%, not calculated"
same,"tumour outcome (control, treated, inhibition, significance)","Carcinogen: 7,12-DIMETHYLBENZ[A]ANTHRACENE, 57-97-6, Dose [Inhibitor]: 0.2% IN DIET FROM WEANING ONWARD (STUDY DURATION: 6 MO AFTER CARCINOGEN ADMINISTRATION), Species: RAT, Strain/Sex: SPRAGUE-DAWLEY/FEMALE, Target Tissue: Type of Lesion: MAMMARY GLAND: TUMOR, Dose [Carcinogen]: 10 MG/RAT IN 1 ML STRIPPED CORN OIL, SINGLE DOSE ON D 50 FOLLOWING 24 HR FASTING PERIOD, Promoter: NONE USED","100%, 100%, 0%, not calculated"
same,"tumour outcome (control, treated, inhibition, significance)","Carcinogen: 7,12-DIMETHYLBENZ[A]ANTHRACENE, 57-97-6, Dose [Inhibitor]: 0.2% IN DIET, UNSATURATED FAT THROUGHOUT THE EXPERIMENT, (STUDY DURATION: 32 WK), Species: RAT, Strain/Sex: SPRAGUE-DAWLEY/FEMALE, Target Tissue: Type of Lesion: MAMMARY GLAND: PARENCHYMAL CARCINOMA, Dose [Carcinogen]: 10 MG IN 1 ML CORN OIL AT 50 D OF AGE CELL ONCE, Promoter: NONE USED","100%, 100%, 0%, not calculated"
same,"tumour outcome (control, treated, inhibition, significance)","Carcinogen: 7,12-DIMETHYLBENZ[A]ANTHRACENE, 57-97-6, Dose [Inhibitor]: 0.2% IN HIGH POLYUNSATURATED FAT DIET DAILY STARTING 29 D BEFORE CARCINOGEN TREATMENT AND CONTINUING FOR DURATION OF STU, Species: RAT, Strain/Sex: SPRAGUE-DAWLEY/FEMALE, Target Tissue: Type of Lesion: MAMMARY GLAND: ADENOCARCINOMA, Dose [Carcinogen]: 10 MG IN 1 ML STRIPPED CORN OIL ONCE AT 50 D OF AGE, Promoter: NONE USED","100%, 100%, 0%, not calculated"
